Where two headings read alike, the source gives them in different places.
Experiments:
HepG2 cells = test: Determination of cytotoxicity (HepG2 cells, resazurin assay, 4 days); format: cell-based; conditions: read-out: Experiment 3 Cytotoxicity CC50
Description: Experiment 3: Determination of Cytotoxicity
The cytotoxicity of the test compound was tested using HepG2 cells. The cells were incubated for 4 days in the presence of the test compound. Cell activity was assessed using the resazurin assay.

[1] = system: HBV DNA in the supernatant of HepG2.2.15; test: Determination of anti-HBV activity in HepG2.2.15 cell (HBV DNA in supernatant by qPCR); format: cell-based, Hepatitis B virus; conditions: HBV DNA, read-out: Experiment 2 Cell experiment EC50

| Compound | CC50 (HepG2 cells) | EC50 ([1]; HepG2.2.15 cells) | EC50 ([1]; Hepatitis B virus, HepG2.2.15, HepG2.2.15 cells) |
| --- | --- | --- | --- |
| CC(O)[C@H]1C=Cc2c(cn(C)c2C(=O)Nc2cc(F)c(F)c(F)c2)S(=N)(=O)N1 (single isomer, unassigned) [Compound 30c2] | > 30000 nM | 100 to 1000 nM | – |
| CC(C)C[C@H]1C=Cc2c(cn(C)c2C(=O)Nc2ccc(F)c(C#N)c2)S(=O)(=NC(C)C)N1 (single isomer, unassigned) [Compound 50u2] | > 30000 nM | 0.1 to 100 nM | – |
| Cn1cc2c(c1C(=O)Nc1ccc(F)c(F)c1)CC[C@H](CO)NS2(=N)=O (single isomer, unassigned) [Compound 40g2] | > 30000 nM | 100 to 1000 nM | – |
| CC(O)[C@H]1C=Cc2c(cn(C)c2C(=O)Nc2ccc(F)c(F)c2)S(=N)(=O)N1 (single isomer, unassigned) [Compound 30a2] | > 30000 nM | 100 to 1000 nM | – |
| CN=S1(=O)N[C@@H](CC(C)C)C=Cc2c1cn(C)c2C(=O)Nc1ccc(F)c(C#N)c1 (single isomer, unassigned) [Compound 50s2] | > 30000 nM | 0.1 to 100 nM | – |
| CC(C)[C@H]1C=Cc2c(cn(C)c2C(=O)Nc2cc(F)c(F)c(F)c2)S(=N)(=O)N1 (single isomer, unassigned) [Compound 10c2] | > 30000 nM | 0.1 to 100 nM | – |
| CC(C)[C@H]1CCc2c(cn(C)c2C(=O)Nc2ccc(F)c(F)c2)S(=N)(=O)N1 (single isomer, unassigned) [Compound 20a2] | > 30000 nM | 0.1 to 100 nM | – |
| Cn1cc2c(c1C(=O)Nc1ccc(F)c(F)c1)C=C[C@H](CO)NS2(=N)=O (single isomer, unassigned) [Compound 30g2] | > 30000 nM | 100 to 1000 nM | – |
| CC(C)[C@H]1CCc2c(cn(C)c2C(=O)Nc2ccc(F)c(C#N)c2)S(=N)(=O)N1 (single isomer, unassigned) [Compound 20b2] | > 30000 nM | 0.1 to 100 nM | – |
| CN=S1(=O)N[C@@H](CC(C)C)CCc2c1cn(C)c2C(=O)Nc1ccc(F)c(C#N)c1 (single isomer, unassigned) [Compound 60v2] | > 30000 nM | 0.1 to 100 nM | – |
| C[C@@H](OCc1ccccc1)[C@H]1C=Cc2c(cn(C)c2C(=O)Nc2ccc(F)c(C#N)c2)S(=N)(=O)N1 (single isomer, unassigned) [Compound 10ccc2] | > 30000 nM | 0.1 to 100 nM | – |
| C[C@@H](OCc1ccccc1)[C@H]1CCc2c(cn(C)c2C(=O)Nc2ccc(F)c(C#N)c2)S(=N)(=O)N1 (single isomer, unassigned) [Compound 20ccc2] | > 30000 nM | 0.1 to 100 nM | – |
| CC(O)[C@H]1C=Cc2c(cn(C)c2C(=O)Nc2ccc(F)c(C#N)c2)S(=N)(=O)N1 (single isomer, unassigned) [Compound 30b2] | > 30000 nM | 100 to 1000 nM | – |
| CC(O)[C@H]1CCc2c(cn(C)c2C(=O)Nc2ccc(F)c(F)c2)S(=N)(=O)N1 (single isomer, unassigned) [Compound 40a2] | > 30000 nM | 100 to 1000 nM | – |
| CC(O)[C@H]1CCc2c(cn(C)c2C(=O)Nc2ccc(F)c(C#N)c2)S(=N)(=O)N1 (single isomer, unassigned) [Compound 40b2] | > 30000 nM | 100 to 1000 nM | – |
| CC[C@H](C)[C@H]1C=Cc2c(cn(C)c2C(=O)Nc2ccc(F)c(F)c2)S(=N)(=O)N1 (single isomer, unassigned) [Compound 10n2] | > 30000 nM | 0.1 to 100 nM | – |
| CC(C)C[C@H]1C=Cc2c(cn(C)c2C(=O)Nc2ccc(F)c(C#N)c2)S(=O)(=NC2CC2)N1 (single isomer, unassigned) [Compound 50v2] | > 30000 nM | 0.1 to 100 nM | – |
| COc1ccc(CC[C@H](C)[C@H]2CCc3c(cn(C)c3C(=O)Nc3cc(F)c(F)c(F)c3)S(=N)(=O)N2)cc1 (single isomer, unassigned) [Compound 20ttt2] | > 30000 nM | 0.1 to 100 nM | – |
| Cn1cc2c(c1C(=O)Nc1cc(F)nc(C#N)c1)CC[C@H](C1CCCCC1)NS2(=N)=O (single isomer, unassigned) [Compound 20dd2] | > 30000 nM | 0.1 to 100 nM | – |
| Cn1cc2c(c1C(=O)Nc1ccnc(C(F)F)c1)CC[C@H](C1CCCCC1)NS2(=N)=O (single isomer, unassigned) [Compound 20ee2] | > 30000 nM | 0.1 to 100 nM | – |
| CC(C)[C@H]1C=Cc2c(cn(C)c2C(=O)Nc2ccnc(C(F)F)c2)S(=N)(=O)N1 (single isomer, unassigned) [Compound 10f2] | > 30000 nM | 0.1 to 100 nM | – |
| CN=S1(=O)N[C@@H](C(C)C)CCc2c1nn(C)c2C(=O)Nc1ccc(F)c(C#N)c1 (single isomer, unassigned) [Compound 90a2] | > 30000 nM | 0.1 to 100 nM | – |
| CCN=S1(=O)N[C@@H](C(C)C)CCc2c1cn(C)c2C(=O)Nc1ccc(F)c(C#N)c1 (single isomer, unassigned) [Compound 60g2] | > 30000 nM | 0.1 to 100 nM | – |

| Compound | CC50 (HepG2 cells) | EC50 ([1]; HepG2.2.15 cells) | EC50 ([1]; Hepatitis B virus, HepG2.2.15, HepG2.2.15 cells) |
| --- | --- | --- | --- |
| CC(C)[C@H]1C=Cc2c(cn(C)c2C(=O)Nc2ccc(F)c(F)c2)S(=N)(=O)N1 (single isomer, unassigned) [Compound 10a2] | > 30000 nM | 0.1 to 100 nM | – |
| Cn1cc2c(c1C(=O)Nc1ccc(F)c(F)c1)C=C[C@H](C1CCCCC1)NS2(=N)=O (single isomer, unassigned) [Compound 10bb2] | > 30000 nM | 0.1 to 100 nM | – |
| CC(C)[C@@H]1C=Cc2c(cn(C)c2C(=O)Nc2ccc(F)c(F)c2)S(=N)(=O)N1 (single isomer, unassigned) [Compound 10g2] | > 30000 nM | 0.1 to 100 nM | – |
| CC(C)C[C@H]1CCc2c(cn(C)c2C(=O)Nc2ccc(F)c(C#N)c2)S(=O)(=NC2CC2)N1 (single isomer, unassigned) [Compound 60y2] | > 30000 nM | 0.1 to 100 nM | – |
| CC(C)[C@H]1CCc2c(nn(C)c2C(=O)Nc2ccc(F)c(C#N)c2)S(=N)(=O)N1 (single isomer, unassigned) [Compound 80a2] | > 30000 nM | 0.1 to 100 nM | – |
| CN=S1(=O)N[C@@H](CC(C)C)CCc2c1nn(C)c2C(=O)Nc1ccc(F)c(C#N)c1 (single isomer, unassigned) [Compound 90b2] | > 30000 nM | 0.1 to 100 nM | – |
| Cn1cc2c(c1C(=O)Nc1ccc(F)c(C#N)c1)C=C[C@H](C1CCCCC1)NS2(=N)=O (single isomer, unassigned) [Compound 10cc2] | > 30000 nM | 0.1 to 100 nM | – |
| CN=S1(=O)N[C@@H](C(C)C)C=Cc2c1cn(C)c2C(=O)Nc1ccc(F)c(F)c1 (single isomer, unassigned) [Compound 50a2] | > 30000 nM | 0.1 to 100 nM | – |
| C[C@@H](OCc1ccccc1)[C@H]1C=Cc2c(cn(C)c2C(=O)Nc2cc(F)c(F)c(F)c2)S(=N)(=O)N1 (single isomer, unassigned) [Compound 10ddd2] | > 30000 nM | 0.1 to 100 nM | – |
| CC(C)C[C@H]1C=Cc2c(nn(C)c2C(=O)Nc2ccc(F)c(C#N)c2)S(=N)(=O)N1 (single isomer, unassigned) [Compound 70b2] | > 30000 nM | 0.1 to 100 nM | – |
| COc1ccc(CC[C@H](C)[C@H]2C=Cc3c(cn(C)c3C(=O)Nc3cc(F)nc(C#N)c3)S(=N)(=O)N2)cc1 (single isomer, unassigned) [Compound 10vvv2] | > 30000 nM | 0.1 to 100 nM | – |
| CC[C@H](C)[C@H]1C=Cc2c(cn(C)c2C(=O)Nc2ccc(F)c(C#N)c2)S(=N)(=O)N1 (single isomer, unassigned) [Compound 10o2] | > 30000 nM | 0.1 to 100 nM | – |
| CC(C)C[C@H]1C=Cc2c(cn(C)c2C(=O)Nc2cc(F)nc(C#N)c2)S(=N)(=O)N1 (single isomer, unassigned) [Compound 10w2] | > 30000 nM | 0.1 to 100 nM | – |
| CC(C)[C@H]1C=Cc2c(cn(C)c2C(=O)Nc2cc(F)nc(C#N)c2)S(=N)(=O)N1 (single isomer, unassigned) [Compound 10e2] | > 30000 nM | 0.1 to 100 nM | – |
| CCN=S1(=O)N[C@@H](CC(C)C)CCc2c1cn(C)c2C(=O)Nc1ccc(F)c(C#N)c1 (single isomer, unassigned) [Compound 60w2] | > 30000 nM | 0.1 to 100 nM | – |
| CCN=S1(=O)N[C@@H](CC(C)C)C=Cc2c1cn(C)c2C(=O)Nc1ccc(F)c(C#N)c1 (single isomer, unassigned) [Compound 50t2] | > 30000 nM | 0.1 to 100 nM | – |
| CC(C)C[C@H]1CCc2c(cn(C)c2C(=O)Nc2ccc(F)c(C#N)c2)S(=O)(=NC(C)C)N1 (single isomer, unassigned) [Compound 60x2] | > 30000 nM | 0.1 to 100 nM | – |
| CC(C)C[C@H]1CCc2c(nn(C)c2C(=O)Nc2ccc(F)c(C#N)c2)S(=N)(=O)N1 (single isomer, unassigned) [Compound 80b2] | > 30000 nM | 0.1 to 100 nM | – |
| CC(C)[C@H]1C=Cc2c(nn(C)c2C(=O)Nc2ccc(F)c(C#N)c2)S(=N)(=O)N1 (single isomer, unassigned) [Compound 70a2] | > 30000 nM | 0.1 to 100 nM | – |
| CC(C)[C@H]1C=Cc2c(cn(C)c2C(=O)Nc2ccc(F)c(C#N)c2)S(=N)(=O)N1 (single isomer, unassigned) [Compound 10b2] | > 30000 nM | – | 0.1 to 100 nM |
| CN=S1(=O)N[C@@H](C(C)C)CCc2c1cn(C)c2C(=O)Nc1ccc(F)c(F)c1 (single isomer, unassigned) [Compound 60a2] | > 30000 nM | 0.1 to 100 nM | – |
| CC(C)[C@@H]1C=Cc2c(cn(C)c2C(=O)Nc2ccc(F)c(C#N)c2)S(=N)(=O)N1 (single isomer, unassigned) [Compound 10h2] | > 30000 nM | > 1000 nM | – |
| CC(C)[C@H]1CCc2c(cn(C)c2C(=O)Nc2cc(F)c(F)c(F)c2)S(=N)(=O)N1 (single isomer, unassigned) [Compound 20c2] | > 30000 nM | 0.1 to 100 nM | – |
